The values below come from patent publication US9771589B2, “Treating hepatitis virus infection by modulating microRNAs miR-130a, miR-130b, miR-204, or miR-1236” (priority 2013, dated 2017).

The test system of series [1] is HBV. In words: HBV DNA replication after cotransfection/treatment, Southern blot. It is filed as cell-based, hepatitis B virus (HBV ayw). An excerpt:
The methods to construct the miRNA expression vectors are as detailed elsewhere. Chen, H. L. et al. PloS one 7, e34116 (2012). PCR products were sub-cloned from TA cloning vector (RBC) to pSuper (OligoEngine, Inc) by Hind III digestion. All plasmids were confirmed by sequencing. Approximately 8-400 fold higher level of microRNA expression was detected by transfection and stem loop RT-PCR analysis. […] The PPARγ and PGC1α expression vectors were from GeneCopoeia.
Human hepatoma Huh7 and HepG2 cells were maintained as described previously Chua, P. K., et al. Journal of virology 84, 2340-2351 (2010), Le Pogam, S., et al., Journal of virology 79, 1871-1887 (2005). In general, the phenotype of viral replication and the effect of microRNA are stronger in HepG2 than Huh7 cells. However, Huh7 cells are easier to passage and transfect. Therefore, we used these two cell lines interchangeably.
Rosiglitazone and GW9662 were from Sigma. HepG2 and Huh7 cells were seeded in 6-well tissue culture plates at 5×10, Quasdorff, M. et al. Journal of viral hepatitis 17, 527-536 (2010) cells/well. At 24 h post-transfection, Rosiglitazone or GW9662 in 0.1% DMSO was added to medium. Culture medium was changed ever two days before harvest.
HBV core particle-associated DNA, total cellular cytoplasmic RNA, and microRNA were analyzed by Northern blot as described previously. […]

The subject of series [2] is HBV core protein (HBc), surface antigen (HBsAg) and e antigen (HBeAg). In words: HBV protein expression (HBc Western blot; HBsAg, HBeAg ELISA). It is filed as cell-based, hepatitis B virus (HBV ayw). An excerpt:
(§1) Anti-HBc (Dako), anti-PPARγ (Santa Cruz), anti-GAPDH, anti-PKLR, anti-G6Pase, anti-tubulin, anti-PGC1α (Origene), anti-PCK1 (Abnova), anti-GCK (Biovision), Secondary antibodies include mouse anti-rabbit-HRP, goat anti-mouse-HRP (GeneTex, Taiwan) and donkey anti-goat-HRP (Santa Cruz).
Chua, P. K., et al. Journal of virology 84, 2340-2351 (2010),

Series [3] deals with HepG2 cells. In words: Measurement of glucose production in cell culture. It counts as cell-based, human. How it is done: The glucose level of HBV transgenic mice was measured using a kit of DRI-CHEM SLIDE GLU-PIII (FUJIFILM, JAPAN). Ten microliters of mouse serum was deposited on a FUJI DRI-CHEM SLIDE GLU-PIII. Glucose oxidase (GOD) catalyzes the oxidization of sample glucose to generate hydrogen peroxide which then reacts with dye precursors and forms red dye. The optical reflection density was measured at 505 nm by the FUJI DRI-CHEM analyzer and converted into the glucose concentration […]. For the measurement of glucose concentration in cell culture, HBV producing cells (HepG2 and Q7 cells) were treated with PPARγ antagonist, GW9662 at indicated concentrations. Twenty-four hours before glucose measurement, the medium was replaced with 1 ml of glucose-free DMEM, supplemented with 2 mM sodium pyruvate. After 16 hrs incubation, 50 μl of medium was collected and the glucose concentration (mM) was measured using the glucose colorimetric assay (Biovision).

Series [4] deals with HBV pregenomic RNA (pgRNA). In words: HBV RNA in transfected cells, Northern blot. Conditions: HepG2, total cytoplasmic RNA of cotransfected culture. It is filed as cell-based, hepatitis B virus (HBV ayw). Here is the method: HBV core particle-associated DNA, total cellular cytoplasmic RNA, and microRNA were analyzed by Northern blot as described previously. Chua, P. K., et al. Journal of virology 84, 2340-2351 (2010), Le Pogam, S., et al., Journal of virology 79, 1871-1887 (2005).

Series [5] has as its system HBV 3′ UTR (nt 1521-2122). In words: 3′ UTR luciferase reporter assay with HBV nt 1521-2122. It is filed as cell-based, hepatitis B virus (HBV ayw). Conditions: Huh7 cells, cotransfection with miRNA expression vector. An excerpt: (§2) Assay for 3′ UTR or enhancer/promoter was as described previously. Chen, H. L., et al., PloS one 7, e34116 (2012).
Background: A reporter such as luciferase makes a cellular process visible.

Series [6] concerns HBV enhancer II. The series can be described thus: HBV enhancer/promoter luciferase reporter assay. It is filed as cell-based, hepatitis B virus. Conditions: Huh7 cells, pGL3/enhII reporter.
Description: as §2

Series [7] concerns SP1, PPAR α, CEBPb, and HNF4. The series can be described thus: Expression of other hepatic transcription factors in miR-130a expressing cell lines. It counts as cell-based, human. Here is the method: (§3) Briefly, 2 μg of total RNA was reverse transcribed into cDNA using random primers and High Capacity cDNA Reverse Transcription kit (Applied Biosystem) at 37° C. for 120 minutes. The cDNA product was then diluted 100 times for real-time PCR analysis using Power SYBR Green PCR master mix (Applied Biosystem), and the default condition in a 20 μl reaction volume by Applied Biosystems 7500 Real-Time PCR System. Data were analyzed by relative quantification methods (ΔΔCt methods) using 7500 software V2.0.1.
(§4) Approximately one million Huh7 and HepG2 cells were transiently transfected by 3 μg plasmid DNA (pSuper and pSuper-miR-130a) with Polyjet (SignaGen), followed by G418 selection for three weeks. The G418-resistant colonies were pooled together.

Series [8] relates to 3′ UTR of PGC1α. In words: 3′UTR luciferase reporter assay, PGC1α. Conditions: reporter cotransfection assay. It counts as cell-based, human.
Description: as §2
(§5) An upstream fragment of the miR-130a precursor (−750 to −1 nt), containing putative binding sites for NF-κB/p65, Egr-1, and CREB, was amplified by PCR from human HepG2 genomic DNA. The PCR products were separated by agarose gel electrophoresis, and the isolated DNA fragments were then cloned into the restriction enzyme digested pGL3 Basic Vector (Promega, Madison, Wis.) containing a firefly luciferase reporter (New England Biolab, Ipswich, Mass.). Various promoter deletion plasmids, containing shorter fragments upstream from the miR-130a precursor, were derived from the full-length promoter plasmid by PCR amplification and cloning using various PCR primers (Table 1 above). All the promoter plasmids were confirmed by sequencing. HuH-7 cells were transfected with promoter deletion plasmids for 48 hrs and firefly luciferase activities were then measured and normalized to each cotransfected renilla luciferase level. The full-length 3′UTRs of PPARγ, PGC1α and SP1 were amplified from genomic DNA of HepG2 cells using their respective forward and reverse primers (Table 1), and cloned into a psiCHECK-2 luciferase vector (Promega, Madison, Wis.) (Shih, C. et al. Virology 179, 871-873 (1990)). […]

Series [9] relates to 3′ UTR of PPARγ. The series can be described thus: 3′UTR luciferase reporter assay, PPARγ. It is filed as cell-based, human. Conditions: reporter cotransfection assay.
Description: as §2, §5

In series [10] the test system is glucokinase (GCK). The series can be described thus: GCK expression in stable miR-130a expressing cells. It is filed as cell-based, human. Here is the method:
as §1, §3, §4

Series [11] relates to NF-κB/p65. In words: NF-κB/p65 protein level, Western blot. It is filed as cell-based, human. Conditions: stable miR-130a expressing HepG2 cells. On the technique in general: Immunoblotting shows a protein as a band on a membrane.
Setting [12] is: HBV-transfected Huh7 cells, increasing concentration of compound.

In the case of `O=C(Nc1ccccc1)c1cc([N+](=O)[O-])ccc1Cl` [GW9662, reference compound], the HBV replication result in series [1] (setting [12]) is “significantly reduced”. The “HBV protein expression (secreted HBsAg and HBeAg)” value in [2] (setting [12]) was “significantly reduced”. Moreover, the glucose level result in [3] (HepG2 cells treated with GW9662 (20 uM), irrespective of HBV-producing status) is “further increased”.
As for “miR-130a: human microRNA, CAGUGCAAUGUUAAAAGGGCAU (SEQ ID NO:1); given as pSuper expression vector or stable expression”, in [1] (HepG2 cells cotransfected with HBV DNA, Southern blot), the “HBV DNA replication” value was “inhibits HBV DNA replication”. Besides, the “level of HBV pregenomic RNA (pgRNA)” value in [4] is listed as “reduced the level of HBV pregenomic RNA”. Further, the “HBV protein expression (HBc, HBsAg, HBeAg)” value in series [2] (HepG2 cells) was “reduce HBV protein expression”. Moreover, the “secretion of HBsAg and HBeAg” value in series [2] (media of HepG2 cotransfected with HBV DNA, ELISA) was “reduces the secretion of HBsAg and HBeAg”. The “luciferase activity, wild type HBV 3′UTR reporter” value in series [5] is recorded as “no appreciable effect”. For the same molecule, the “luciferase activity driven by HBV enhancer-II” value in series [6] is “reduced the luciferase activity driven by HBV enhancer-II”. Besides, the “expression levels of most hepatic transcription factors examined” value in [7] is on record as “remained unchanged”. Besides, the “luciferase activity, reporter with 3′UTR of PGC1α” value in series [8] was “significantly reduced the luciferase activity”. Moreover, the “luciferase activity, reporter with 3′UTR of PPARγ” value in series [9] is given as “significantly reduced the luciferase activity”. Also, the “GCK mRNA expression” value in series [10] (miR-130a expressing hepatocytes, RT-qPCR) was “increased mRNA expression”. Besides, in [10] (stable miR-130a expressing HepG2 or Huh7 cells, Western blot), the GCK protein expression entry is given as “not reduced but increased”. In addition, the glucose level entry in series [3] (control versus miR-130a producing cells) is “No significant difference in glucose level”. Besides, in [11], the NF-κB/p65 protein level result is on record as “increased significantly”.
